Experiments:
Settings in all cases: 48 h
[1] = test system: SEM cells; experiment: cell viability relative to DMSO control; higher = less cytotoxic
How it was run: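 Viability was expressed as a per-plate percentage of DMSO wells, with cell-free wells as background. Leukemia cells (NOMO1 or SEM at 500 cells/well, P12-Ichikawa at 1000 cells/well) were adapted for at least four passages in each medium and seeded in 1536-well plates (5 μl). Library compounds in DMSO were pin-dosed over an 11-point threefold series from 47 μM to 0.79 nM, and CellTiter-Glo One luminescence was read after 48 h at 37°C.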

[2] = test system: P12-Ichikawa; experiment: AUC of viability dose-response curve (% viability x log10 dose units); higher = less sensitive
How it was run: (§1)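 In 1536-well plates, leukemia cells adapted to each medium (500 or 1000 cells/well) were exposed for 48 h at 37°C to library compounds in DMSO across 11 threefold doses, 47 μM down to 0.79 nM. Viability was read by CellTiter-Glo One luminescence and normalised per plate to DMSO and cell-free wells. A four-parameter log-logistic fit over log10 doses was integrated by trapezoidal rule. This yielded the area under the curve, with over-full-viability curves scaled and quality-control failures dropped.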

[3] = test system: SEM cells; experiment: as above
How it was run: as §1

[4] = test system: NOMO1; experiment: as above
How it was run: as §1

[5] = RPMI 5 mM glucose + 10% dialyzed FBS, 0.000781 µM
[6] = RPMI 5 mM glucose + 10% dialyzed FBS, 0.00234 µM
[7] = RPMI 5 mM glucose + 10% dialyzed FBS, 0.00702 µM
[8] = RPMI 5 mM glucose + 10% dialyzed FBS, 0.0211 µM
[9] = RPMI 5 mM glucose + 10% dialyzed FBS, 0.0632 µM
[10] = RPMI 5 mM glucose + 10% dialyzed FBS, 0.19 µM
[11] = RPMI 5 mM glucose + 10% dialyzed FBS, 0.569 µM
[12] = RPMI 5 mM glucose + 10% dialyzed FBS, 1.71 µM
[13] = RPMI 5 mM glucose + 10% dialyzed FBS, 5.12 µM
[14] = RPMI 5 mM glucose + 10% dialyzed FBS, 15.4 µM
[15] = RPMI 5 mM glucose + 10% dialyzed FBS, 46.1 µM
[16] = RPMI 5 mM glucose + 10% dialyzed FBS

Compound: C[C@H]1CN(C[C@@H](C)N1)C2=C(F)C3=C(C(=C2F)N)C(=O)\C(=C/N3C4CC4)C(O)=O
- cell viability ([1]; HPLM + 10% dialyzed FBS, 0.000781 µM): 108%
- cell viability ([1]; HPLM + 10% dialyzed FBS, 0.00234 µM): 112%
- cell viability ([1]; HPLM + 10% dialyzed FBS, 0.00702 µM): 130%
- cell viability ([1]; HPLM + 10% dialyzed FBS, 0.0211 µM): 122%
- cell viability ([1]; HPLM + 10% dialyzed FBS, 0.0632 µM): 109%
- cell viability ([1]; HPLM + 10% dialyzed FBS, 0.19 µM): 115%
- cell viability ([1]; HPLM + 10% dialyzed FBS, 0.569 µM): 107%
- cell viability ([1]; HPLM + 10% dialyzed FBS, 1.71 µM): 91.4%
- cell viability ([1]; HPLM + 10% dialyzed FBS, 5.12 µM): 95.9%
- cell viability ([1]; HPLM + 10% dialyzed FBS, 15.4 µM): 86.4%
- cell viability ([1]; HPLM + 10% dialyzed FBS, 46.1 µM): 60.1%
- cell viability [1, 5]: 119%
- cell viability [1, 6]: 122%
- cell viability [1, 7]: 134%
- cell viability [1, 8]: 114%
- cell viability [1, 9]: 109%
- cell viability [1, 10]: 124%
- cell viability [1, 11]: 118%
- cell viability [1, 12]: 95.3%
- cell viability [1, 13]: 96.3%
- cell viability [1, 14]: 88.7%
- cell viability [1, 15]: 56.9%
- AUC of viability dose-response curve ([2]; HPLM + 10% dialyzed FBS): 448
- AUC of viability dose-response curve ([2]; RPMI 5 mM glucose + 10% FBS): 441
- AUC of viability dose-response curve [2, 16]: 430
- AUC of viability dose-response curve ([3]; HPLM + 10% dialyzed FBS): 424
- AUC of viability dose-response curve ([3]; RPMI 5 mM glucose + 10% FBS): 423
- AUC of viability dose-response curve [3, 16]: 425
- AUC of viability dose-response curve ([4]; HPLM + 10% dialyzed FBS): 422
- AUC of viability dose-response curve ([4]; RPMI 5 mM glucose + 10% FBS): 466
- AUC of viability dose-response curve [4, 16]: 446

Compound: C=C[C@H]1CN2CCC1C[C@H]2[C@H](O)c1ccnc2ccccc12 (some centres not stated)
- cell viability [1, 5]: 123%
- cell viability [1, 6]: 120%
- cell viability [1, 7]: 122%
- cell viability [1, 8]: 133%
- cell viability [1, 9]: 126%
- cell viability [1, 10]: 138%
- cell viability [1, 11]: 132%
- cell viability [1, 12]: 133%
- cell viability [1, 13]: 108%
- cell viability [1, 14]: 110%
- cell viability [1, 15]: 55.1%
- AUC of viability dose-response curve ([2]; HPLM + 10% dialyzed FBS): 458
- AUC of viability dose-response curve ([2]; RPMI 5 mM glucose + 10% FBS): 451
- AUC of viability dose-response curve [2, 16]: 461
- AUC of viability dose-response curve ([3]; HPLM + 10% dialyzed FBS): 449
- AUC of viability dose-response curve ([3]; RPMI 5 mM glucose + 10% FBS): 441
- AUC of viability dose-response curve [3, 16]: 452
- AUC of viability dose-response curve ([4]; HPLM + 10% dialyzed FBS): 451
- AUC of viability dose-response curve ([4]; RPMI 5 mM glucose + 10% FBS): 461
- AUC of viability dose-response curve [4, 16]: 433

Compound: O=C1CCC(N2C(=O)c3ccccc3C2=O)C(=O)N1 (configuration not stated)
- cell viability ([1]; RPMI 5 mM glucose + 10% FBS, 0.000781 µM): 106%
- cell viability ([1]; RPMI 5 mM glucose + 10% FBS, 0.00234 µM): 114%
- cell viability ([1]; RPMI 5 mM glucose + 10% FBS, 0.00702 µM): 115%
- cell viability ([1]; RPMI 5 mM glucose + 10% FBS, 0.0211 µM): 112%
- cell viability ([1]; RPMI 5 mM glucose + 10% FBS, 0.0632 µM): 102%
- cell viability ([1]; RPMI 5 mM glucose + 10% FBS, 0.19 µM): 94.6%
- cell viability ([1]; RPMI 5 mM glucose + 10% FBS, 0.569 µM): 98.2%
- cell viability ([1]; RPMI 5 mM glucose + 10% FBS, 1.71 µM): 111%
- cell viability ([1]; RPMI 5 mM glucose + 10% FBS, 5.12 µM): 101%
- cell viability ([1]; RPMI 5 mM glucose + 10% FBS, 15.4 µM): 67.3%
- cell viability ([1]; RPMI 5 mM glucose + 10% FBS, 46.1 µM): 98.9%
- AUC of viability dose-response curve ([2]; HPLM + 10% dialyzed FBS): 443
- AUC of viability dose-response curve ([2]; RPMI 5 mM glucose + 10% FBS): 438
- AUC of viability dose-response curve [2, 16]: 450
- AUC of viability dose-response curve ([3]; HPLM + 10% dialyzed FBS): 454
- AUC of viability dose-response curve ([3]; RPMI 5 mM glucose + 10% FBS): 437
- AUC of viability dose-response curve [3, 16]: 443
- AUC of viability dose-response curve ([4]; HPLM + 10% dialyzed FBS): 436
- AUC of viability dose-response curve ([4]; RPMI 5 mM glucose + 10% FBS): 437
- AUC of viability dose-response curve [4, 16]: 461

Compound: COc1cc(Oc2ccnc3cc(OC)c(OC)cc23)ccc1NC(=O)NC(C)c1nccs1 (configuration not stated)
- AUC of viability dose-response curve ([2]; HPLM + 10% dialyzed FBS): 449
- AUC of viability dose-response curve ([2]; RPMI 5 mM glucose + 10% FBS): 446
- AUC of viability dose-response curve [2, 16]: 450
- AUC of viability dose-response curve ([3]; HPLM + 10% dialyzed FBS): 453
- AUC of viability dose-response curve ([3]; RPMI 5 mM glucose + 10% FBS): 440
- AUC of viability dose-response curve [3, 16]: 439
- AUC of viability dose-response curve ([4]; HPLM + 10% dialyzed FBS): 444
- AUC of viability dose-response curve ([4]; RPMI 5 mM glucose + 10% FBS): 463
- AUC of viability dose-response curve [4, 16]: 462

Compound: CC(C)C[C@@H](N)[C@H](O)C(=O)N[C@H](C(=O)N[C@H](C(=O)N[C@@H](CC(=O)O)C(=O)O)C(C)C)C(C)C
- AUC of viability dose-response curve ([2]; HPLM + 10% dialyzed FBS): 468
- AUC of viability dose-response curve ([2]; RPMI 5 mM glucose + 10% FBS): 433
- AUC of viability dose-response curve [2, 16]: 450
- AUC of viability dose-response curve ([3]; HPLM + 10% dialyzed FBS): 465
- AUC of viability dose-response curve ([3]; RPMI 5 mM glucose + 10% FBS): 446
- AUC of viability dose-response curve [3, 16]: 477
- AUC of viability dose-response curve ([4]; HPLM + 10% dialyzed FBS): 455
- AUC of viability dose-response curve ([4]; RPMI 5 mM glucose + 10% FBS): 462
- AUC of viability dose-response curve [4, 16]: 463

Compound: O=C1Cc2cc(CCN3CCN(c4nsc5ccccc45)CC3)c(Cl)cc2N1
- AUC of viability dose-response curve ([2]; HPLM + 10% dialyzed FBS): 459
- AUC of viability dose-response curve ([2]; RPMI 5 mM glucose + 10% FBS): 469
- AUC of viability dose-response curve [2, 16]: 464
- AUC of viability dose-response curve ([3]; HPLM + 10% dialyzed FBS): 380
- AUC of viability dose-response curve ([3]; RPMI 5 mM glucose + 10% FBS): 366
- AUC of viability dose-response curve [3, 16]: 362
- AUC of viability dose-response curve ([4]; HPLM + 10% dialyzed FBS): 444
- AUC of viability dose-response curve ([4]; RPMI 5 mM glucose + 10% FBS): 460
- AUC of viability dose-response curve [4, 16]: 457

Compound: CC(C)C[C@H](NC(=O)c1cc2ccccc2s1)C(=O)N1CCN(C(=O)[C@H](CO)N[S+](=O)([O-])c2ccc(Cl)cc2Cl)CC1
- AUC of viability dose-response curve ([2]; HPLM + 10% dialyzed FBS): 462
- AUC of viability dose-response curve ([2]; RPMI 5 mM glucose + 10% FBS): 464
- AUC of viability dose-response curve [2, 16]: 462
- AUC of viability dose-response curve ([3]; HPLM + 10% dialyzed FBS): 451
- AUC of viability dose-response curve ([3]; RPMI 5 mM glucose + 10% FBS): 453
- AUC of viability dose-response curve [3, 16]: 439
- AUC of viability dose-response curve ([4]; HPLM + 10% dialyzed FBS): 461
- AUC of viability dose-response curve ([4]; RPMI 5 mM glucose + 10% FBS): 468
- AUC of viability dose-response curve [4, 16]: 436
